According to patent US5863889A, “ICAM-1/LFA-1 short-chain peptides and method of using same” (The University of Kansas, priority 1996, dated 1999):
“Also recorded” adds a separate entry of the source. Read-outs that look alike come from different tables or passages of the source.

Key:
Molt3 cells [1] = test: Homotypic adhesion assay (MDHC-induced clumping of T-cells); assay type: cell-based, human; set-up: key to Homotypic Adhesion Amount: Any sample having a score of "+++" or "++++" is considered to have a significant ability to modulate T-cell binding interaction; Any sample having a score of "+++" or "++++" is considered to have a significant ability to modulate T-cell binding interaction; settings: 10 μM MDHC
Protocol: As before, the T-cells were Molt3 cells prepared in RPMI 1640 growth medium according to Example 2. An approximate 7 ml aliquot of the growth medium was centrifuged (Jouan Model GT422 at 1400 rpm for 6.5 minutes), and the supernatant fluid was decanted. The pellet was resuspended in the supernatant fluid at titer of about 1×10^6 cells/ml, with the excess supernatant fluid being retained for future resuspension of the peptides.
A 228 nmol quantity of the LJCRF-1 (Sequence ID No. 6) peptide described in Table 1 was diluted with the supernatant fluid to a 500 μl final volume, and filtered in microcentrifuge filter tubes (0.22 micron filter; 3500 rpm for 6 minutes). Serial dilution of the filtered peptide with supernatant fluid was conducted to yield five 125 μl peptide solutions to give respective concentrations of about 115 μM, 230 μM, 460 μM, 910 μM, and 1.82 mM. At each concentration, a 125 μl portion of the cell suspension was pipetted into each 125 μl portion of the peptide solutions to yield combined samples having a 250 μl volume. The 250 μl samples were seeded into individual wells in a 48-well tissue culture grade plate (from Costar of Cambridge, Md.) and incubated at 37° C. for 30 minutes. Each sample received 5 μl of 2,5-methyl dihydroxy cinnamate ("MDHC") for a 10 μM final concentration, and was subsequently incubated for about 10 hours at 37° C. MDHC induces intercellular clumping of human T-cells (Tibbetts, Butler, and Benedict, submitted) by activating the LFA/ICAM binding interaction between respective cells.
Pictures were taken of five random fields per sample using an Olympus photomicroscope having a 0.8 mm field at 400×magnification, and a 3.2 mm field of view at 100×magnification. The amount of clumping observed was quantified by determining the mean number of clumps per field ± a standard error.
FIGS. 5, 6, and 7 replicate photographs taken from exemplary peptide assays. FIG. 5 is a photograph of the control sample having no peptides and no MDHC added, from which essentially no clumping of cells is observed. […] Any sample having a score of "+++" or "++++" is considered to have a significant ability to modulate T-cell binding interaction. This is similar to results obtained by incubating similarly treated cells with antibody against either LFA or ICAM.
The homotypic adhesion assay assesses the actual ability of a candidate peptide to modulate the ability of T-cells to adhere with one another.

Molt3 cells [2] = test: Cell metabolic assay (MTT); assay type: cell-based
Protocol: After taking the photographs in Example 3 (and in some instances no photographs were taken), cell metabolic activity was assessed by an MTT assay. A 37.5 μl portion of MTT dye (purchased from SIGMA of St. Louis, Mo.), i.e., 3-[4,5-dimethyl thiazole-2yl]-2, 5- diphenyl tetrazolium bromide; thiazolyl blue) was added to each well, and incubated with the cells at 37° C. for about six hours. After incubation, a 250 μl quantity of a MTT solubilization solution (of a type that may be purchased from either Fischer Scientific of St. Louis, Mo. or BCD Labs of Lawrence, Kans.) was added to each well, and incubated with the cells at room temperature overnight. In the morning, the spectrophotometric absorption of each plate was determined at 570 nm in a microplate ELISA reader manufactured by Cambridge Technologies of Water-town, Mass., in order to assess cell viability as an indicator of potential peptide toxicity.

ICAM-1 (CD54) = biological target: T1, ICAM-1 (CD54) (Homo sapiens, UniProt P05362); test: Antibody binding assay (FACS): anti-ICAM-1 mAb (mouse IgG anti-human CD54) binding to Molt3 T-cells after peptide incubation; assay type: cell-based; settings: for Fluorescence, % change from control of the medium fluorescence intensity: mAb CD54
T1 construct: host or cells: Molt3 human T-cell leukemia line

ICAM-1 = biological target: T2, ICAM-1 (Homo sapiens, UniProt P05362); test: Conformation modulator assay: flow cytometry of FITC-labeled RB-1-88 binding to T-cells after pre-incubation with first peptide; assay type: cell-based; settings: first peptide 4550 μM
T2 construct: host or cells: Molt3 human T-cell leukemia line
Protocol: The antibody binding assay of Example 2 was twice repeated at a peptide concentration of 4550 μM, each time substituting a 455 nmol quantity of synthetic peptide selected from the group consisting of ICAM-based peptide SC-3-111 (Sequence ID No. 10) and LFA-based peptide LJCRF-4 (Sequence ID No. 16) in respective assays. Following incubation for 30 minutes at 37° C. after introduction of the first peptides, both incubated culture were supplemented by an additional quantity of FITC-labeled RB-1-88 (Sequence ID No. 19) peptide in a quantity sufficient to provide a 1.90 μM concentration in the cell/PBS solution.
Following addition of the RB-1-88 (Sequence ID No. 19) peptide, the mixture was incubated for 30 minutes at 4° C., washed three times with 500 μl PBS/BSA, resuspended in 500 μl PBS/BSA and immediately subjected to a flow cytometer analysis as before. Table 3 presents the results of this analysis, which are also depicted in FIGS. 8 (SC-3-111) and 9 (LJCRF-4).

LFA-1 (CD11a) = biological target: T3, LFA-1 (CD11a) (Homo sapiens, UniProt P20701); test: Antibody binding assay (FACS): anti-LFA-1 mAb (mouse IgG anti-human CD11a) binding to Molt3 T-cells after peptide incubation; assay type: cell-based; settings: for Fluorescence, % change from control of the medium fluorescence intensity: mAb CD11a, average ± standard error of runs
T3 construct: host or cells: Molt3 human T-cell leukemia line
Protocol: A 1 ml quantity of the Molt3 inoculum was warmed to 37° C. and transferred by pipette into about 25 ml of a growth culture medium including RPMI 1640 lymphocyte growth medium (Fisher Scientific of St. Louis, Miss.) mixed with 10% by volume fetal calf serum, 100 units/ml penicillin, 100 μg/ml streptomycin and 2 mM glutamine. The inoculated culture was incubated for three to four days at 37° C. under a normal atmosphere having about 5% CO2 added thereto. This culture was capable of being maintained indefinitely by siphoning away the top (non-cell containing) layer and adding 50 ml (or more) of growth culture medium at intervals of three to four days.
An aqueous buffer solution including Dulbecco's phosphate buffered saline and bovine serum albumin ("-PBS/BSA solution") was prepared for use, and included a mixture of 200 mg KH2 PO4, 1.15 g Na2 HPO4, 100 mg CaCl2, 200 mg KCl, 100 mg MgCl2.6H2 O, 8 g NaCl, with distilled water added to a final 1 liter volume at room temperature, thus, forming a "PBS" solution of pH 7.4 to which was added 0.5% by weight bovine serum albumin.
An aliquot of about 7 ml was removed from the incubated culture medium and subjected to washing with the PBS/BSA solution. The washing procedure was initiated by placing the aliquot in a centrifuge (Model GT422 from Jouan, distributed Piruscio & Assoc. of Manchester, Miss.) at 1400 rpm for 6.5 minutes to separate the cells from the growth medium. The supernatant fluid was decanted, a 5 ml portion of PBS/BSA solution was transferred by pipette into the pellet, and the mixture was again centrifuged as before. The resulting supernatant fluid was decanted and the cells from the pellet were resuspended in PBS/BSA solution at a titer of about 1×10^6 cells/ml. A 500 μl portion of the solution containing the resuspended cells was placed in a microcentrifuge (Marathon 13K/M from Fisher Scientific of St. Louis, Miss.) at 3500 rpm for six minutes, to provide a washed pellet.
[…] The cells were incubated with the peptide cocktail at 37° C. for 45 minutes.
After incubation with the peptide cocktail, several antibodies were successively mixed into the incubated solution. A 75 μl portion of anti-IgM solution (a mixture of 10 μl of goat anti-human IgM stock purchased from Jackson Immuno Research of Westgrove, Pa.; and 65 μl of PBS/BSA solution) was added to the peptide cocktail for blocking of nonspecific binding of the secondary antibody. The resulting mixture was incubated for 10 minutes on ice. About 0.1 μg of a primary antibody including mouse IgG anti-human CD11a (purified according to conventional protocols at the University of Kansas Department of Pharmacology and Toxicology from an American Type Culture hybridoma cell line having Catalogue Number HB-202) was next stirred into the mixture, which was then incubated for 30 minutes at room temperature. The incubated mixture was placed in a microcentrifuge at 3500 rpm for six minutes to remove the cells from the mixture, and the cell pellet was washed two times by adding 500 μl aliquots of PBS/BSA solution and microfuging to remove non-bound antibodies from the cells as before. The resulting washed pellet was resuspended in 100 μl of a secondary antibody cocktail including 5 μl of fluorescein isothiocyanate ("FITC") labeled goat anti-mouse IgG (from CALTAG of South San Francisco, Calif.) and 95 μl of PBS/BSA solution. The resulting solution was incubated for 30 minutes at room temperature in the dark.
The incubated solution including the secondary antibody cocktail was microfuged at 3500 rpm for six minutes to remove the cells from the solution, and the cell pellet was washed two times with 500 μl portions of PBS/BSA solution, as before, to remove unbound antibodies. […]

[3] = peptide 4550 μM, average ± standard error of runs
[4] = peptide 4550 μM, negative = blocking

T3 sequence (P20701 26-1170): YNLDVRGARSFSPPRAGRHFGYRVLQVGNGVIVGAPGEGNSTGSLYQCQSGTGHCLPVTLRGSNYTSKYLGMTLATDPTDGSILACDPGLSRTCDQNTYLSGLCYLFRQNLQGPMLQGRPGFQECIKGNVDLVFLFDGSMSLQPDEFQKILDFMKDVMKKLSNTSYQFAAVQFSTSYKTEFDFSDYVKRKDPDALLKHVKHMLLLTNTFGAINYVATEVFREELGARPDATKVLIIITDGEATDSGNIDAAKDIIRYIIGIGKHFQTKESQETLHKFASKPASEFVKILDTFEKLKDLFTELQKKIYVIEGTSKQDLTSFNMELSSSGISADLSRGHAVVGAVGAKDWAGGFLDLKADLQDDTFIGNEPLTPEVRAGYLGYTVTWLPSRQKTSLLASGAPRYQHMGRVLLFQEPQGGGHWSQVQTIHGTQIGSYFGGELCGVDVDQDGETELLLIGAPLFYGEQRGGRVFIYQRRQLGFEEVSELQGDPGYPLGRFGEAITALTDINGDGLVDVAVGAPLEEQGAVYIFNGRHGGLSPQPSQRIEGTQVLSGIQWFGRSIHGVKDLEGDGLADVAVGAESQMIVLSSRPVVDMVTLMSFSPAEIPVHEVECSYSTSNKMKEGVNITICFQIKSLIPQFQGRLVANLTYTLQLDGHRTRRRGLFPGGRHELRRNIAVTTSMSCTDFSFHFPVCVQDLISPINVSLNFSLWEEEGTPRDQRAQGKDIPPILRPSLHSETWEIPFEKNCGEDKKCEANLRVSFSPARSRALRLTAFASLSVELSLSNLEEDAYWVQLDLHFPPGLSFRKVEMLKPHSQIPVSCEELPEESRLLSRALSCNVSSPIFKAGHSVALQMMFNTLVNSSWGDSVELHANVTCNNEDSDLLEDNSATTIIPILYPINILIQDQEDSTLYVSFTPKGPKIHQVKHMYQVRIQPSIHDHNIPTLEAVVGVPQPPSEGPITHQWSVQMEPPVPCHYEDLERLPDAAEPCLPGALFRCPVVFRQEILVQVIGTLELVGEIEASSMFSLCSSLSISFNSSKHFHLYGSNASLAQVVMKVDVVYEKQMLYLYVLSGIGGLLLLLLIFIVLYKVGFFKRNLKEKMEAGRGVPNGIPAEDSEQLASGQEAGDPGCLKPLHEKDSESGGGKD
T3 sequence (P05107 23-769 partner): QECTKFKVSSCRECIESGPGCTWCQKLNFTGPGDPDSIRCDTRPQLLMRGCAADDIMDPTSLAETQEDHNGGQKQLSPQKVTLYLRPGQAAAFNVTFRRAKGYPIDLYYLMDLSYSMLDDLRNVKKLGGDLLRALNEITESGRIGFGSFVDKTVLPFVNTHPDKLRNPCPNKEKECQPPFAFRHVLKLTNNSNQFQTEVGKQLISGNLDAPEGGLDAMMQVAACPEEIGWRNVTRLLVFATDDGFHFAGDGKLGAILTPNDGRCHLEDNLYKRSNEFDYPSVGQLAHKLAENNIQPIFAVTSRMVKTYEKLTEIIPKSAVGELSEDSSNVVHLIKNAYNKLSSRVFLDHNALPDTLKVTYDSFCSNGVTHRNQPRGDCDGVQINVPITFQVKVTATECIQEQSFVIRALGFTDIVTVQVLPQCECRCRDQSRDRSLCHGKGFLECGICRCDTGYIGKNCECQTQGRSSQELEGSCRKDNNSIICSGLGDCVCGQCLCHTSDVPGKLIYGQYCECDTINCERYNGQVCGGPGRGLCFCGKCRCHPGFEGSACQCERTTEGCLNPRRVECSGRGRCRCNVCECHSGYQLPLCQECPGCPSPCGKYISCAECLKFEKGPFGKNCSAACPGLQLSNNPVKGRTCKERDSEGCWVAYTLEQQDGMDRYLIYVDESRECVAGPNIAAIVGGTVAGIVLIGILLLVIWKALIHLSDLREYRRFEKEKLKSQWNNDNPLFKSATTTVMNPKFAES
T1 sequence (P05362 28-532): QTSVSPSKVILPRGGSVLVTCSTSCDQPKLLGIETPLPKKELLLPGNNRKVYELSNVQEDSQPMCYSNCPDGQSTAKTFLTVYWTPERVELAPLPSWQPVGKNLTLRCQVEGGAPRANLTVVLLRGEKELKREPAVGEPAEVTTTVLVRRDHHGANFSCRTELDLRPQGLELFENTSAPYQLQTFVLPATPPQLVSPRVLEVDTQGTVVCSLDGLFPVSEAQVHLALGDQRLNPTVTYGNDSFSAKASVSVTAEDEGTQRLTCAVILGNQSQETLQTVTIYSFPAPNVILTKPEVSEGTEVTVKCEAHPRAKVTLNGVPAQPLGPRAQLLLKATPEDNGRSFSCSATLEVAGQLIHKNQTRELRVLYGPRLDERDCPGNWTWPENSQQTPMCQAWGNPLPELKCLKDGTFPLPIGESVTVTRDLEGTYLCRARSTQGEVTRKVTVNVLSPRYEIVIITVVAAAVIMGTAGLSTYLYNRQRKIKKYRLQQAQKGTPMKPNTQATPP
T2 sequence (P05362 28-532): as above

Substance | Homotypic Adhesion Effect (Molt3 cells [1]; peptide 115 μM) | Homotypic Adhesion Effect (Molt3 cells [1]; peptide 230 μM) | Homotypic Adhesion Amount (Molt3 cells [1]; peptide 460 μM) | Homotypic Adhesion Effect (Molt3 cells [1]; peptide 460 μM) | Homotypic Adhesion Amount (Molt3 cells [1]; peptide 910 μM) | Homotypic Adhesion Effect (Molt3 cells [1]; peptide 910 μM) | Homotypic Adhesion Amount (Molt3 cells [1]; peptide 1820 μM) | Homotypic Adhesion Effect (Molt3 cells [1]; peptide 1820 μM) | MTT % Viability (Molt3 cells [2]; peptide 115 μM) [%] | MTT % Viability (Molt3 cells [2]; peptide 230 μM) [%] | MTT % Viability (Molt3 cells [2]; peptide 460 μM) [%] | MTT % Viability (Molt3 cells [2]; peptide 910 μM) [%] | MTT % Viability (Molt3 cells [2]; peptide 1820 μM) [%] | further results
SC-3-223: LFA-1β derived peptide, identical to LJCRF-4 (Sequence ID No. 16), tested separately (DLSYSLDDLRNVKKLGGDLLRALNE) | Block | Block | +++ | Block | ++++ | Block | ++++ | Block | 103 | 109 | 112 | 108 | 75 | Homotypic Adhesion Amount (Molt3 cells [1]; peptide 230 μM): +++
MC-1-80: ICAM-1 derived short-chain peptide, Sequence ID No. 9 (LPRGGSVLVTG) |  |  |  |  |  |  |  |  |  |  |  |  |  | metabolic activity / cellular respiration by MTT (Molt3 cells [2]; peptide 910 μM): enhanced
LJCRF-4: LFA-1β based modulator peptide, Sequence ID No. 16 (DLSYSLDDLRNVKKLGGDLLRALNE) | Enhance | Enhance; also recorded: binding enhancers | ++++ | Block; also recorded: blockers of intercellular adhesion | ++++ | Block | +++ | Block | 99 | 101 | 94 | 60 | 11 | effect on anti-ICAM-1 mAb binding (ICAM-1 (CD54); FIG. 4, peptide 4550 μM): promote the specific antibody binding; Fluorescence, % change from control of the medium fluorescence intensity (ICAM-1 (CD54); peptide 2275 μM, average ± standard error of runs): +3 ± 1%; Fluorescence, % change from control of the medium fluorescence intensity (ICAM-1 (CD54); peptide 6825 μM, 1 run): +521%; median peak curve shift (enhancement) (ICAM-1 (CD54); single run of FIG. 4, peptide 4550 μM, anti-ICAM antibody): +447%; Homotypic Adhesion Amount (Molt3 cells [1]; peptide 115 μM): +++; Homotypic Adhesion Amount (Molt3 cells [1]; peptide 230 μM): +++; FACS Analysis (RB-1-88 binding) (ICAM-1; then FITC-labeled RB-1-88 1.90 μM, shift vs control): +145%; effect on binding of labeled peptide (RB-1-88 / LJCRF-6) to T-cell ICAM-1 (ICAM-1; FIGS. 8, 9): synergistically increases binding; also recorded: significant T-cell binding enhancement; also recorded: significantly enhanced
LJCRF-6: LFA-1α (insert) based short-chain peptide, Sequence ID No. 18 (ITDGEATDSGNIDAAKDIIYIIGI) |  |  |  |  |  | almost total inhibition | +++ | Block |  |  |  |  |  | Fluorescence, % change from control of the medium fluorescence intensity (ICAM-1 (CD54); [3]): -4%
LJCRF-5: LFA-1α derived short-chain peptide, Sequence ID No. 17 (GVDVDQDGETELIGAPLFYGEQRG) | Block | Block |  | Block | ++++ | Block | ++++ | Block | 95 | 84 | 81 | 52 | 20 | Fluorescence, % change from control of the medium fluorescence intensity (ICAM-1 (CD54); [3]): -17%; metabolic activity by MTT (Molt3 cells [2]; peptide 1820 μM): decrease in metabolic activity
LJCRF-3: ICAM-1 derived short-chain peptide, Sequence ID No. 12 (KELLLPGNNRKVYELSNVQEDSQP) |  |  |  |  |  |  |  |  |  |  |  |  |  | Fluorescence, % change from control of the medium fluorescence intensity (LFA-1 (CD11a); [4]): -13 ± 19%; MTT % Viability (Molt3 cells [2]): 38%
LJCRF-1: ICAM-1 based short-chain peptide, Sequence ID No. 6 (QTSVSPSKVILPRGGSVLVTG) |  |  | +++ | Block |  | Block | +++ | Block |  |  | 93 | 92 | 66 | Fluorescence, % change from control of the medium fluorescence intensity (LFA-1 (CD11a); peptide 2275 μM): -12 ± 2%; Fluorescence, % change from control of the medium fluorescence intensity (LFA-1 (CD11a); [4]): -29 ± 3%; blocking efficiency (LFA-1 (CD11a); single above-average run (FIGS. 2, 3), peptide 4550 μM, anti-CD11a): 65%
